The assay deals with Bovine cardiac myofibrils. Kind of assay: In vitro model of dose-dependent myofibril ATPase modulation (AC1.4, pyruvate kinase/lactate dehydrogenase-coupled ATPase assay at pCa25). It counts as biochemical. As to conditions: concentration at which ATPase activity was 1.4-fold higher than the bottom of the dose curve, mean of a minimum of two independent tests. The method, boiled down:
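Absorbance at 340 nm tracked ATP hydrolysis through pyruvate kinase/lactate dehydrogenase coupling (0.5 mM NADH, 1.5 mM PEP). Myofibrils from detergent-homogenized bovine heart, 1 mM ATP, pH 6.80, EGTA/CaCl2 buffering. Dose-response curves fitted with a four-parameter Hill equation.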
For the compound `COc1cc(C(=O)N2[C@@H](C(=O)N[C@@H](c3cc(F)c(C(F)(F)F)cc3F)C3COC3)C[C@H]3C[C@H]32)ccn1` [Example 815, (1R,3R,5R)-N-((R)-(2,5-difluoro-4-(trifluoromethyl)phenyl)(oxetan-3-yl)methyl)-2-(2-methoxyisonicotinoyl)-2-azabicyclo[3.1.0]hexane-3-carboxamide], the AC1.4 was found to be 2.4 µM. For the compound `Cc1cccc(C(=O)N2CCC[C@@H]2C(=O)N[C@@H](c2ccc(C(F)(F)F)cc2F)C2CC2)c1` [Example 715, N-((R)-cyclopropyl(2-fluoro-4-(trifluoromethyl)phenyl)methyl)-1-(3-methylbenzoyl)-D-prolinamide], the AC1.4 was 6.057 µM.

The compound `Cc1ccc(CNC(=O)[C@H]2CCCN2C(=O)[C@H]2CCCN(S(=O)(=O)N3CC(C#N)C3)C2)cc1C(F)(F)F` [Example 544, 1-(((3S)-1-((3-cyano-1-azetidinyl)sulfonyl)-3-piperidinyl)carbonyl)-N-(4-methyl-3-(trifluoromethyl)benzyl)-D-prolinamide] yielded an AC1.4 of 2.8175 µM. For the compound `CN(C)S(=O)(=O)c1cccc(C(=O)N2CCC[C@@H]2C(=O)N[C@@H](c2ccc(Cl)c(F)c2)C2CC2)c1` [Example 114, N-((R)-(4-chloro-3-fluorophenyl)(cyclopropyl)methyl)-1-(3-(dimethylsulfamoyl)benzoyl)-D-prolinamide], the AC1.4 was 0.1771 µM. The result for `O=C(N[C@@H](c1ccc(C(F)(F)F)cc1F)C1CC1)[C@H]1CCCN1C(=O)c1cccc(C(O)C(F)(F)F)c1` (stereo partly drawn) [Example 556, (2R)-N-((R)-cyclopropyl(2-fluoro-4-(trifluoromethyl)phenyl)methyl)-1-(3-(2,2,2-trifluoro-1-hydroxyethyl)benzoyl)pyrrolidine-2-carboxamide] reads 2.9075 µM. `O=C(N[C@@H](c1cc(F)c(Cl)cc1F)C1CC1)[C@H]1C[C@H]2C[C@H]2N1C(=O)c1cccc(S(=O)(=O)CCO)c1` [Example 112, (1R,3R,5R)-N-((R)-(4-chloro-2,5-difluorophenyl)(cyclopropyl)methyl)-2-(3-((2-hydroxyethyl)sulfonyl)benzoyl)-2-azabicyclo[3.1.0]hexane-3-carboxamide] showed an AC1.4 of 0.1762 µM. `CCS(=O)(=O)c1cccc(C(=O)N2CCC[C@@H]2C(=O)N[C@@H](c2ccc(C(F)(F)F)cc2F)C2CC2)c1` [Example 212, N-((R)-cyclopropyl(2-fluoro-4-(trifluoromethyl)phenyl)methyl)-1-(3-(ethylsulfonyl)benzoyl)-D-prolinamide] gave an AC1.4 of 0.4557 µM. The result for `O=C(N[C@@H](c1cc(F)c(C(F)(F)F)cc1F)C1CC1)[C@H]1C[C@H]2C[C@H]2N1C(=O)c1ccnc(C(F)(F)F)c1` [Example 225, (1R,3R,5R)-N-((R)-cyclopropyl(2,5-difluoro-4-(trifluoromethyl)phenyl)methyl)-2-((2-(trifluoromethyl)-4-pyridinyl)carbonyl)-2-azabicyclo[3.1.0]hexane-3-carboxamide] reads 0.4889 µM.

The compound `CCc1ccnc(C(=O)N2[C@@H](C(=O)N[C@@H](c3cc(F)c(Cl)cc3F)C3CC3)C[C@H]3C[C@H]32)c1` [Example 640, (1R,3R,5R)-N-((R)-(4-chloro-2,5-difluorophenyl)(cyclopropyl)methyl)-2-((4-ethyl-2-pyridinyl)carbonyl)-2-azabicyclo[3.1.0]hexane-3-carboxamide] displayed an AC1.4 of 4.2315 µM.

`N#CC1CN(S(=O)(=O)N2CCC[C@H](C(=O)N3[C@@H](C(=O)NCc4ccc(C(F)(F)F)nc4)C[C@H]4C[C@H]43)C2)C1` [Example 326]: the AC1.4 amounted to 0.8885 µM. In turn, `CCOc1ccc(CNC(=O)[C@H]2CCCN2C(=O)[C@H]2CCCN(S(=O)(=O)N3CC(C#N)C3)C2)cc1F` [Example 708, 1-(((3S)-1-((3-cyano-1-azetidinyl)sulfonyl)-3-piperidinyl)carbonyl)-N-(4-ethoxy-3-fluorobenzyl)-D-prolinamide] displayed an AC1.4 of 5.8345 µM.

Compound `N#CC1CN(S(=O)(=O)N2CCC[C@H](C(=O)N3C[C@@H](F)C[C@@H]3C(=O)NCc3cccc(C(F)(F)F)c3)C2)C1` [Example 427, (4S)-1-(((3S)-1-((3-cyano-1-azetidinyl)sulfonyl)-3-piperidinyl)carbonyl)-4-fluoro-N-(3-(trifluoromethyl)benzyl)-D-prolinamide] had an AC1.4 of 1.5865 µM.

In turn, `COCC(NC(=O)[C@H]1CCCN1C(=O)[C@H]1CCCN(S(=O)(=O)N2CC(C#N)C2)C1)c1ccc(Cl)cc1` (stereo partly drawn) [Example 97, N-(-1-(4-chlorophenyl)-2-methoxyethyl)-1-(((3S)-1-((3-cyano-1-azetidinyl)sulfonyl)-3-piperidinyl)carbonyl)-D-prolinamide] returned an AC1.4 of 0.1466 µM. For the compound `CS(=O)(=O)c1cncc(C(=O)N2CCC[C@@H]2C(=O)N[C@@H](c2ccc(C(F)(F)F)cc2F)C2CC2)c1` [Example 662, N-((R)-cyclopropyl(2-fluoro-4-(trifluoromethyl)phenyl)methyl)-1-((5-(methylsulfonyl)-3-pyridinyl)carbonyl)-D-prolinamide], the AC1.4 turned out to be 4.4365 µM. As to `CS(=O)(=O)c1cccc(C(=O)N2[C@@H](C(=O)N[C@@H](c3ccc(F)cc3F)C3COC3)C[C@H]3C[C@H]32)c1` [Example 728, (1R,3R,5R)-N-((R)-(2,4-difluorophenyl)(3-oxetanyl)methyl)-2-(3-(methylsulfonyl)benzoyl)-2-azabicyclo[3.1.0]hexane-3-carboxamide], the AC1.4 is 6.701 µM. Take `NS(=O)(=O)c1cc(C(=O)N2CCC[C@@H]2C(=O)N[C@@H](c2ccc(C(F)(F)F)cc2F)C2CC2)c(Cl)cc1F` [Example 777, 1-(2-chloro-4-fluoro-5-sulfamoylbenzoyl)-N-((R)-cyclopropyl(2-fluoro-4-(trifluoromethyl)phenyl)methyl)-D-prolinamide]: the AC1.4 was 8.3805 µM. Consider `N#CC1CN(S(=O)(=O)N2CCC[C@H](C(=O)N3CCC[C@@H]3C(=O)NCc3ccc(C4CC4)cc3)C2)C1` [Example 447, 1-(((3S)-1-((3-cyano-1-azetidinyl)sulfonyl)-3-piperidinyl)carbonyl)-N-(4-cyclopropylbenzyl)-D-prolinamide], for which the AC1.4 was found to be 1.831 µM. As to `N#CC1CN(S(=O)(=O)N2CCC[C@H](C(=O)N3CCC[C@@H]3C(=O)NCc3cnc(C(F)(F)F)nc3)C2)C1` [Example 400, 1-(((3S)-1-((3-cyano-1-azetidinyl)sulfonyl)-3-piperidinyl)carbonyl)-N-((2-(trifluoromethyl)-5-pyrimidinyl)methyl)-D-prolinamide], the AC1.4 amounted to 1.4048 µM. Under `CC[C@H](NC(=O)[C@H]1CCCN1C(=O)[C@H]1CCCN(S(=O)(=O)N2CC(C#N)C2)C1)c1ccc(C(F)(F)F)cc1` [Example 195, 1-(((3S)-1-((3-cyano-1-azetidinyl)sulfonyl)-3-piperidinyl)carbonyl)-N-((1S)-1-(4-(trifluoromethyl)phenyl)propyl)-D-prolinamide] stands 0.3859 µM; under `O=C(N[C@@H](c1ccc(C(F)(F)F)cc1F)C1COC1)[C@H]1C[C@H]2C[C@H]2N1C(=O)c1ccccc1NC(=O)C(F)(F)F` [Example 351, (1R,3R,5R)-N-((R)-(2-fluoro-4-(trifluoromethyl)phenyl)(3-oxetanyl)methyl)-2-(2-(2,2,2-trifluoroacetamido)benzoyl)-2-azabicyclo[3.1.0]hexane-3-carboxamide], 1.0354 µM. Turning to `CC(C)(C)OC1CN(S(=O)(=O)N2CCC[C@H](C(=O)N3CCC[C@@H]3C(=O)NCc3ccc(C(F)(F)F)cc3)C2)C1` [Example 734, 1-(((3S)-1-((3-tert-butoxy-1-azetidinyl)sulfonyl)-3-piperidinyl)carbonyl)-N-(4-(trifluoromethyl)benzyl)-D-prolinamide], the AC1.4 is 6.866 µM.

`COc1cc(C)ccc1CNC(=O)[C@H]1CCCN1C(=O)[C@H]1CCCN(S(=O)(=O)N2CC(C#N)C2)C1` [Example 417, 1-(((3S)-1-((3-cyano-1-azetidinyl)sulfonyl)-3-piperidinyl)carbonyl)-N-(2-methoxy-4-methylbenzyl)-D-prolinamide] returned an AC1.4 of 1.53 µM. `C[C@@H](NC(=O)[C@H]1CCCN1C(=O)[C@H]1CCCN(S(=O)(=O)N2CC(C#N)C2)C1)c1cccc(C(F)(F)F)c1` [Example 465, 1-(((3S)-1-((3-cyano-1-azetidinyl)sulfonyl)-3-piperidinyl)carbonyl)-N-((1R)-1-(3-(trifluoromethyl)phenyl)ethyl)-D-prolinamide] returned an AC1.4 of 1.9455 µM.

`N#CC1CN(S(=O)(=O)c2cccc(C(=O)N3c4ccccc4CC3C(=O)NCc3ccc(C(F)(F)F)cc3)c2)C1` (racemic) [Example 481, (2R)-1-((3-((3-cyano-1-azetidinyl)sulfonyl)phenyl)carbonyl)-N-(4-(trifluoromethyl)benzyl)-2,3-dihydro-1H-indole-2-carboxamide and (2S)-1-((3-((3-cyano-1-azetidinyl)sulfonyl)phenyl)carbonyl)-N-(4-(trifluoromethyl)benzyl)-2,3-dihydro-1H-indole-2-carboxamide] yielded an AC1.4 of 2.157 µM. As to `O=C(N[C@@H](c1ccc(C(F)(F)F)cc1F)C1CC1)[C@H]1CCCCN1C(=O)c1cccc(C(O)C(F)(F)F)c1` (stereo partly drawn) [Example 347, (2R)-N-((R)-cyclopropyl(2-fluoro-4-(trifluoromethyl)phenyl)methyl)-1-(3-(2,2,2-trifluoro-1-hydroxyethyl)benzoyl)piperidine-2-carboxamide], the AC1.4 came to 1.0255 µM. `Cc1cccc(CNC(=O)[C@H]2CCCN2C(=O)[C@H]2CCCN(S(=O)(=O)N3CC(C#N)C3)C2)c1` [Example 643, 1-(((3S)-1-((3-cyano-1-azetidinyl)sulfonyl)-3-piperidinyl)carbonyl)-N-(3-methylbenzyl)-D-prolinamide] showed an AC1.4 of 4.3125 µM.

Source of the values: patent US11780826B2 (Amgen Inc., priority 2017, dated 2023).
